Experimental data published in ChEMBL document CHEMBL5365482, “Rational Design of Sulfonyl-γ-AApeptides as Highly Potent HIV-1 Fusion Inhibitors with Broad-Spectrum Activity” (J Med Chem, 2023).

Assays:
[1] = test system: Human immunodeficiency virus 1; assay: Antiviral activity against HIV1 IIIB infected in human MT2 cells assessed as inhibition of viral growth incubated for 30 mins by ELISA assay; assay type: functional, organism-based; settings: Human immunodeficiency virus 1, IIIB, MT2, 0.5 h
[2] = Cytotoxicity against human MT2 cells assessed as inhibition of cell growth measured after 3 days by CCK8 assay; assay type: toxicity, cell-based; settings: time 3 day
[3] = Selectivity index, ratio of CC50 for human MT2 cells to IC50 for HIV1 IIIB infected in human MT2 cells; assay type: toxicity, cell-based; settings: read-out: Ratio CC50/IC50

SMILES | IC50 [1] | CC50 at 72 h [2] | selectivity ratio [3]
CC[C@@H](C)[C@@H](CN(CC(=O)N[C@@H](CCC(=O)O)CN(CC(=O)N[C@@H](CC(C)C)CN(CC(N)=O)S(=O)(=O)CC(C)C)S(=O)(=O)c1ccc(C(=O)O)cc1)S(=O)(=O)CC(C)C)NC(=O)CN(C[C@H](CCCCN)NC(=O)CN(C[C@H](Cc1ccc(O)cc1)NC(=O)CN(C[C@H](CCC(=O)O)NC(=O)CN(C[C@@H](NC(=O)CN(C[C@H](CCCCN)NC(=O)CN(C[C@H](Cc1c[nH]c2ccccc12)NC(=O)CN(C[C@H](CCC(=O)O)NC(=O)CN(C[C@H](Cc1c[nH]c2ccccc12)NC(=O)CN(C[C@H](CCSC)NC(C)=O)S(=O)(=O)CC(C)C)S(=O)(=O)CC(C)C)S(=O)(=O)c1ccc(C(=O)O)cc1)S(=O)(=O)CC(C)C)S(=O)(=O)CCN)[C@H](C)CC)S(=O)(=O)CC(C)C)S(C)(=O)=O)S(=O)(=O)CC(C)C)S(=O)(=O)CCN | > 40 µM | > 40 µM | –
CC[C@@H](C)[C@@H](CN(CC(=O)N[C@@H](CCC(=O)O)CN(CC(=O)N[C@@H](CC(C)C)CN(CC(N)=O)S(=O)(=O)CC(C)C)S(C)(=O)=O)S(=O)(=O)CC(C)C)NC(=O)CN(C[C@H](CCCCN)NC(=O)CN(C[C@H](Cc1ccc(O)cc1)NC(=O)CN(C[C@H](CCC(=O)O)NC(=O)CN(C[C@@H](NC(=O)CN(C[C@H](CCCCN)NC(=O)CN(C[C@H](Cc1c[nH]c2ccccc12)NC(=O)CN(C[C@H](CCC(=O)O)NC(=O)CN(C[C@H](Cc1c[nH]c2ccccc12)NC(=O)CN(C[C@H](CCSC)NC(C)=O)S(=O)(=O)CC(C)C)S(=O)(=O)CC(C)C)S(=O)(=O)c1ccc(C(=O)O)cc1)S(=O)(=O)CC(C)C)S(=O)(=O)CCN)[C@H](C)CC)S(=O)(=O)CC(C)C)S(=O)(=O)c1ccc(C(=O)O)cc1)S(=O)(=O)CC(C)C)S(=O)(=O)CCN | > 40 µM | > 40 µM | –
CC[C@@H](C)[C@@H](CN(CC(=O)N[C@@H](CCC(=O)O)CN(CC(=O)N[C@H](CO)CN(CC(=O)N[C@@H](CCCCN)CN(CC(=O)N[C@H](CN(CC(=O)N[C@@H](CCC(=O)O)CN(CC(=O)N[C@@H](CC(C)C)CN(CC(N)=O)S(=O)(=O)CC(C)C)S(=O)(=O)c1ccc(C(=O)O)cc1)S(=O)(=O)CC(C)C)[C@H](C)CC)S(=O)(=O)CCN)S(=O)(=O)CC(C)C)S(=O)(=O)c1ccc(C(=O)O)cc1)S(=O)(=O)CC(C)C)NC(=O)CN(C[C@@H](CCCCN)NC(=O)CN(C[C@H](Cc1c[nH]c2ccccc12)NC(=O)CN(C[C@H](CCC(=O)O)NC(=O)CN(C[C@H](Cc1c[nH]c2ccccc12)NC(=O)CN(C[C@H](CCSC)NC(C)=O)S(=O)(=O)CC(C)C)S(=O)(=O)CC(C)C)S(=O)(=O)c1ccc(C(=O)O)cc1)S(=O)(=O)CC(C)C)S(=O)(=O)CCN | > 100 µM | > 100 µM | –
CC[C@@H](C)[C@@H](CN(CC(=O)N[C@@H](CCC(=O)O)CN(CC(=O)N[C@@H](CC(C)C)CN(CC(N)=O)S(=O)(=O)CC(C)C)S(=O)(=O)c1ccc(C(=O)O)cc1)S(=O)(=O)CC(C)C)NC(=O)CN(C[C@H](CCCCN)NC(=O)CN(C[C@H](Cc1ccc(O)cc1)NC(=O)CN(C[C@H](CCC(=O)O)NC(=O)CN(C[C@@H](NC(=O)CN(C[C@H](CCCCN)NC(=O)CN(C[C@H](Cc1c[nH]c2ccccc12)NC(=O)CN(C[C@H](CCC(=O)O)NC(=O)CN(C[C@H](Cc1c[nH]c2ccccc12)NC(C)=O)S(=O)(=O)CC(C)C)S(=O)(=O)c1ccc(C(=O)O)cc1)S(=O)(=O)CC(C)C)S(=O)(=O)CCN)[C@H](C)CC)S(=O)(=O)CC(C)C)S(=O)(=O)c1ccc(C(=O)O)cc1)S(=O)(=O)CC(C)C)S(=O)(=O)CCN | > 100 µM | > 100 µM | –
CC[C@@H](C)[C@@H](CN(CC(=O)N[C@@H](CCC(=O)O)CN(CC(=O)N[C@@H](CC(C)C)CN(CC(=O)N[C@@H](CCCCN)CN(CC(=O)N[C@@H](CC(C)C)CN(CC(N)=O)S(=O)(=O)CC(C)C)S(=O)(=O)CCN)S(=O)(=O)CC(C)C)S(=O)(=O)c1ccc(C(=O)O)cc1)S(=O)(=O)CC(C)C)NC(=O)CN(C[C@H](CCCCN)NC(=O)CN(C[C@H](Cc1ccc(O)cc1)NC(=O)CN(C[C@H](CCC(=O)O)NC(=O)CN(C[C@@H](NC(=O)CN(C[C@H](CCCCN)NC(=O)CN(C[C@H](Cc1c[nH]c2ccccc12)NC(=O)CN(C[C@H](CCC(=O)O)NC(=O)CN(C[C@H](Cc1c[nH]c2ccccc12)NC(=O)CN(C[C@H](CCSC)NC(C)=O)S(=O)(=O)c1ccc(OC)cc1)S(=O)(=O)CC(C)C)S(=O)(=O)c1ccc(C(=O)O)cc1)S(=O)(=O)CC(C)C)S(=O)(=O)CCN)[C@H](C)CC)S(=O)(=O)CC(C)C)S(=O)(=O)c1ccc(C(=O)O)cc1)S(=O)(=O)CC(C)C)S(=O)(=O)CCN | 15.7 µM | > 100 µM | > 6.3
CC[C@@H](C)[C@@H](CN(CC(=O)N[C@@H](CCC(=O)O)CN(CC(=O)N[C@@H](CC(C)C)CN(CC(N)=O)S(=O)(=O)CC(C)C)S(=O)(=O)c1ccc(C(=O)O)cc1)S(=O)(=O)CC(C)C)NC(=O)CN(C[C@H](CCCCN)NC(=O)CN(C[C@H](Cc1ccc(O)cc1)NC(=O)CN(C[C@H](CCC(=O)O)NC(=O)CN(C[C@@H](NC(=O)CN(C[C@H](CCCCN)NC(=O)CN(C[C@H](Cc1c[nH]c2ccccc12)NC(=O)CN(C[C@H](CCC(=O)O)NC(=O)CN(C[C@H](Cc1c[nH]c2ccccc12)NC(=O)CN(C[C@H](CCSC)NC(C)=O)S(C)(=O)=O)S(=O)(=O)CC(C)C)S(=O)(=O)c1ccc(C(=O)O)cc1)S(=O)(=O)CC(C)C)S(=O)(=O)CCN)[C@H](C)CC)S(=O)(=O)CC(C)C)S(=O)(=O)c1ccc(C(=O)O)cc1)S(=O)(=O)CC(C)C)S(=O)(=O)CCN | 38.9 µM | > 100 µM | > 2.5
CC[C@@H](C)[C@@H](CN(CC(=O)N[C@@H](CCC(=O)O)CN(CC(=O)N[C@@H](Cc1ccc(O)cc1)CN(CC(=O)N[C@@H](CCCCN)CN(CC(=O)N[C@H](CN(CC(=O)N[C@@H](CCC(=O)O)CN(CC(=O)N[C@@H](CC(C)C)CN(CC(N)=O)S(=O)(=O)CC(C)C)S(=O)(=O)c1ccc(C(=O)O)cc1)S(=O)(=O)CC(C)C)[C@H](C)CC)S(=O)(=O)CCN)S(=O)(=O)CC(C)C)S(=O)(=O)c1ccc(C(=O)O)cc1)S(=O)(=O)CC(C)C)NC(=O)CN(C[C@H](CCCCN)NC(=O)CN(C[C@@H](Cc1c[nH]c2ccccc12)NC(=O)CN(C[C@H](CCC(=O)O)NC(=O)CN(C[C@H](Cc1c[nH]c2ccccc12)NC(=O)CN(C[C@H](CCSC)NC(C)=O)S(=O)(=O)CC(C)C)S(=O)(=O)CC(C)C)S(C)(=O)=O)S(=O)(=O)CC(C)C)S(=O)(=O)CCN | > 40 µM | > 40 µM | –
CC[C@@H](C)[C@@H](CN(CC(=O)N[C@@H](CCC(=O)O)CN(CC(=O)N[C@@H](CC(C)C)CN(CC(=O)N[C@@H](CCCCN)CN(CC(=O)N[C@@H](C)CN(CC(=O)N[C@@H](CCC(=O)O)CN(CC(=O)N[C@@H](CCCCN)CN(CC(=O)N[C@@H](CCCCN)CN(CC(=O)N[C@@H](CCC(=O)O)CN(CC(=O)N[C@@H](CCC(=O)O)CN(CC(=O)N[C@@H](CC(C)C)CN(CC(=O)N[C@@H](CCCCN)CN(CC(N)=O)S(=O)(=O)CCN)S(=O)(=O)CC(C)C)S(=O)(=O)c1ccc(C(=O)O)cc1)S(=O)(=O)c1ccc(C(=O)O)cc1)S(=O)(=O)CCN)S(=O)(=O)CCN)S(=O)(=O)c1ccc(C(=O)O)cc1)S(C)(=O)=O)S(=O)(=O)CCN)S(=O)(=O)CC(C)C)S(=O)(=O)c1ccc(C(=O)O)cc1)S(=O)(=O)CC(C)C)NC(C)=O | > 40 µM | > 40 µM | –
CC[C@H](C)[C@H](NC(=O)[C@H](CC(C)C)NC(=O)[C@H](CCC(=O)O)NC(=O)[C@H](CCC(=O)O)NC(=O)[C@@H](NC(=O)[C@H](CCCCN)NC(=O)[C@H](CCCCN)NC(=O)[C@@H](NC(=O)[C@H](Cc1ccc(O)cc1)NC(=O)[C@H](CCC(=O)O)NC(=O)[C@H](CCC(=O)O)NC(=O)[C@@H](NC(=O)[C@H](CCCCN)NC(=O)[C@H](CCCCN)NC(=O)[C@H](CC(=O)O)NC(=O)[C@H](Cc1cc2ccccc2[nH]1)NC(=O)[C@H](CCC(=O)O)NC(=O)[C@H](CCC(=O)O)NC(=O)[C@H](Cc1cc2ccccc2[nH]1)NC(=O)[C@@H](NC(=O)[C@H](CCSC)NC(C)=O)[C@@H](C)O)[C@@H](C)CC)[C@H](C)O)[C@@H](C)CC)C(=O)N[C@@H](CCCCN)C(=O)N[C@@H](CCCCN)C(=O)N[C@@H](CO)C(N)=O | 0.001 µM | – | –
CC[C@@H](C)[C@@H](CN(CC(=O)N[C@@H](CCC(=O)O)CN(CC(=O)N[C@@H](CC(C)C)CN(CC(N)=O)S(=O)(=O)CC(C)C)S(C)(=O)=O)S(=O)(=O)CC(C)C)NC(=O)CN(C[C@H](CCCCN)NC(=O)CN(C[C@H](Cc1ccc(O)cc1)NC(=O)CN(C[C@H](CCC(=O)O)NC(=O)CN(C[C@@H](NC(=O)CN(C[C@H](CCCCN)NC(=O)CN(C[C@H](Cc1c[nH]c2ccccc12)NC(=O)CN(C[C@@H](CCC(=O)O)NC(=O)CN(C[C@H](Cc1c[nH]c2ccccc12)NC(=O)CN(C[C@H](CCSC)NC(C)=O)S(=O)(=O)CC(C)C)S(=O)(=O)CC(C)C)S(C)(=O)=O)S(=O)(=O)CC(C)C)S(=O)(=O)CCN)[C@H](C)CC)S(=O)(=O)CC(C)C)S(C)(=O)=O)S(=O)(=O)CC(C)C)S(=O)(=O)CCN | > 100 µM | > 100 µM | –
CC[C@@H](C)[C@@H](CN(CC(=O)N[C@@H](CCC(=O)O)CN(CC(=O)N[C@@H](CC(C)C)CN(CC(N)=O)S(=O)(=O)CC(C)C)S(=O)(=O)c1ccc(C(=O)O)cc1)S(=O)(=O)CC(C)C)NC(=O)CN(C[C@H](CCCCN)NC(=O)CN(C[C@H](Cc1ccc(O)cc1)NC(=O)CN(C[C@H](CCC(=O)O)NC(=O)CN(C[C@@H](NC(=O)CN(C[C@H](CCCCN)NC(=O)CN(C[C@H](Cc1c[nH]c2ccccc12)NC(=O)CN(C[C@H](CCC(=O)O)NC(=O)CN(C[C@H](Cc1c[nH]c2ccccc12)NC(=O)CN(C[C@H](CCSC)NC(C)=O)S(=O)(=O)CC(C)C)S(=O)(=O)CC(C)C)S(=O)(=O)c1ccc(C(=O)O)cc1)S(=O)(=O)CC(C)C)S(=O)(=O)CCN)[C@H](C)CC)S(=O)(=O)CC(C)C)S(=O)(=O)c1ccc(C(=O)O)cc1)S(C)(=O)=O)S(=O)(=O)CCN | > 100 µM | > 100 µM | –
